pIC50: −log10 of the molar value.
Legend:
[1] = Pharmacokinetics after intravenous and oral treatment, plasma LC-MS/MS; assay type: in vivo, male Han Wistar rats; conditions: rat, 1 mg/kg; for AUC(0-inf): extrapolated to infinity
Procedure: The pharmacokinetics of compounds E7, E17 and E18, were studied in male Han Wistar rats. The rats were treated intravenously and orally (n=3 for each dose route) with compounds formulated as solutions. The rats were fitted with a jugular cannula for serial sampling. A full profile was acquired from each rat. Plasma extracts were quantitatively analyzed using a specific and sensitive LC-MS/MS bioanalytical method. Inter-individual variations between the three rats in each group were limited (CV for pharmacokinetic parameters was below 50%). […] A range of clearance values were obtained for the different structure, ranging from low to moderate values (from 43 to 250 ml/h). After oral administration, absorption was quite fast with a clear maximum concentration reached by the first sampling time-point of 15 minutes for all compounds.

[2] = target: T1, hEP4 receptors (Homo sapiens, UniProt P35408); assay: [3H]-Prostaglandin E2 membrane binding assay; conditions: read-out: Binding pKi (converted)
T1 construct: membrane fraction used
T1 sequence (P35408 whole entry): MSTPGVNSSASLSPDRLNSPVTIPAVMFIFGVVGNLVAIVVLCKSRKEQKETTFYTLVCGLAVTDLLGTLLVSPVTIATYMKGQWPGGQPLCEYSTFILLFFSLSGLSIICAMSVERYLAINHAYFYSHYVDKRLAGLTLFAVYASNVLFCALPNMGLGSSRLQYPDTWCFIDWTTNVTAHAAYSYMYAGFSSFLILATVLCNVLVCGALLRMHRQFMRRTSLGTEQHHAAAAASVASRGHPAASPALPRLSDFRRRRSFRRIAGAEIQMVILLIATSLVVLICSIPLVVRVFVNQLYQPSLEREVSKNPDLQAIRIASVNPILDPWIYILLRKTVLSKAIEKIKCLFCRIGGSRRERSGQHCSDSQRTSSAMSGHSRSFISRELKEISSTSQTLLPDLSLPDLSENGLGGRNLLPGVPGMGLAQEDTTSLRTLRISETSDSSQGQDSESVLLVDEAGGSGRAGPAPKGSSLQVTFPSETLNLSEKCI
Procedure: (§1) The cDNA clone of human EP4 receptor (NM_000958.2) was obtained from InvitrogenTM: Ultimate™ ORF Clone Collection - Clone ID IOH46525. The coding sequence was subcloned in expression vector pcDNATM6.2/V5-DEST by Gateway technology (InvitrogenTM). Human embryonic kidney cells (HEK-293) were stably transfected with expression vector for human EP4 receptor in according to the method described in FuGENE®6 Transfection Reagent's manual (Roche Applied Science®).
(§2) The EP4 transfected cells were grown in Dulbecco's modified Eagle's medium containing 10% fetal bovine serum and 10 µg/ml Blasticidin S HCl (selection medium) at 37°C in a humidified atmosphere of 5% CO2 in air. For the membrane preparation, cells in flask were harvested by hypotonical/mechanical lysis with chilled (4°C) TE buffer (5mM TRIS, 5mM ethylenediamine tetra-acetic acid (EDTA), pH 7.4). Cells were detached and lysed with 10ml of hypotonic lysis buffer and by scraping. The cell lysate was vortexed for 30 sec and centrifuged at 40000x g at 4°C for 22min.
The membrane pellet was resuspended in the same buffer (5mM TRIS, 5mM ethylenediamine tetra-acetic acid (EDTA), pH 7.4), and protein concentration was determined by Bradford method (Bio-Bad® assay). This membrane preparation was stored at -80°C freezer until use for binding assay. ([^3H]-PGE2) membranes binding assays toward hEP4 receptors (human EP4/HEK293 transfectant, see above) and hEP2 receptors (human EP2/HEK293 transfectant, purchased from PerkinElmer Inc) were performed in 10 mM MES-KOH buffer pH6, containing 10 mM MgCl2 and 1 mM CaCl2 for EP4 binding assay or 50 mM Tris-Cl, BSA 0.5% for EP2 binding assay (according to supplier indication) . Ten microgram of protein from membrane fractions were incubated in a total volume of 0.1ml (EP4) or 0.2ml (EP2) with 1nM (EP4) or 3nM (EP2) [^3H]-PGE2 (PerkinElmer Inc, 171Ci/mmol). In both assays to determine the total binding or non specific binding, 1% DMSO or 1µM prostaglandin E2 (EP4) or 100 µM (EP2) were added to reaction mixtures, respectively. Incubation was conducted in a polypropylene 96 multiwell for 90 min (EP4) or 60 min (EP2) at room temperature prior to separation of the bound and free radioligand by vacuum manifold rapid filtration on glass fiber filters (Unifilter GFB96, PerkinElmer Inc) pre-soaked in 0.3% polyethyleneimine. Filters were washed with ice cold buffer pH 7.4 (50mM HEPES, NaCl 500mM, BSA 0.1% for EP4 binding assay or 50mM Tris-Cl for EP2 binding assays) and the residual [^3H]-PGE2 binding determined by solid scintillation counter (TopCount , PerkinElmer Inc).
The affinity (Ki) of each compound was calculated according to the Cheng-Prousoff equation: Ki = IC50/(1+([C]/Kd)). Results were expressed as pKi (- log10 Ki (M)

[3] = target: T1, hEP4 receptors; assay: cAMP assay (AlphaScreen) on human EP4 membrane of transfected cells, antagonism of PGE2; assay type: biochemical; conditions: HEK293 cell membrane stimulated with PGE2 3nM; read-out: functional IC50
Procedure: as §1, §2
The assay is based on the competition between endogenous cAMP and exogenously added biotinylated cAMP. The capture of cAMP is achieved by using a specific antibody conjugated to Donor beads. Cell membranes prepared as described above, were resuspended in 1 ml stimulation buffer (HBSS 1X + BSA 0.1% + IBMX 0.5mM + HEPES 5mM + MgCl2 10mM + GTP 1 nM + GDP 10µM + ATP 100µM - pH 7.4). Cell membranes were dispensed into white 384-well microplates at final concentration of 1µg/well and used for the determination of cAMP with the alphascreen cAMP functional assay (EnVision - PerkinElmer). Cell membrane/anti-cAMP Acceptor beads mix (5 µl) and a mixture of analysed compounds (dissolved in 100% DMSO to a final maximal concentration of 0.01% DMSO)/PGE2 (5 µl) were incubated at room temperature (22-23°C) for 30 min in the dark. The Biotinylated-cAMP and donor beads (15 µl) were dispensed into each well to start the competition reaction. After 1 h incubation RT (22-23°C) in the dark the plate was read using EnVision platform to determine the cAMP level (excitation: 680nm; emission:520,620nm). In each experiment:
cAMP standard curve (concentration range from 1x10-6 to 1x10-11 M in log intervals) with a negative control (no cAMP)
a positive control: forskolin 10µM
Antagonism studies were performed stimulating HEK293 cell membrane with PGE2 3nM. The AlphaScreen signal is plotted as a function of log concentration of cAMP and functional IC50 is determined. IC50 value is calculated by linear regression.

**Q.** For `O=C(O)c1ccc(C2(NC(=O)[C@H]3CC(F)(F)CCN3Cc3ccc(C(F)(F)F)cc3)CC2)cc1` [Example E17, (R)-4-(1-(4,4-difluoro-1-(4-(trifluoromethyl)benzyl)piperidine-2-carboxamido)cyclopropyl)benzoic acid], which AUC(0-t) ([1]; male, Han Wistar, plasma, iv) is on record?
**A.** The AUC(0-t) was 966 ng·h/mL.

**Q.** And the AUC(0-inf) ([1]; male, Han Wistar, plasma, iv)?
**A.** The AUC(0-inf) was 1040 ng·h/mL.

**Q.** What about the half-life ([1]; male, Han Wistar, plasma, iv, extrapolated, indicative only) of the same molecule?
**A.** The half-life was 7.3 h.

**Q.** What about the clearance ([1]; male, Han Wistar, plasma, iv, extrapolated, indicative only, read-out: CLp* (converted)) of the same molecule?
**A.** Its clearance is 4.22 mL/min.

**Q.** And the Vd ([1]; male, Han Wistar, plasma, iv, extrapolated, indicative only, read-out: Vss*)?
**A.** Its Vd is 1.79 L.

**Q.** And the AUC(0-t) ([1]; male, Han Wistar, plasma, po)?
**A.** The AUC(0-t) was 823 ng·h/mL.

**Q.** What about the Cmax ([1]; male, Han Wistar, plasma, po) of the same molecule?
**A.** Its Cmax is 318 ng/mL.

**Q.** And the Tmax ([1]; male, Han Wistar, plasma, po)?
**A.** Its Tmax is 0.5 h.

**Q.** And the AUC(0-inf) ([1]; male, Han Wistar, plasma, po)?
**A.** Its AUC(0-inf) is 1080 ng·h/mL.

**Q.** What about the half-life ([1]; male, Han Wistar, plasma, po, extrapolated, indicative only) of the same molecule?
**A.** The half-life was 14.1 h.

**Q.** What about the bioavailability ([1]; male, Han Wistar, plasma, po) of the same molecule?
**A.** Its bioavailability is 85%.

**Q.** And the “Tlast” value ([1]; po)?
**A.** Its value is 24 h.

**Q.** What about the Ki [2] of the same molecule?
**A.** The Ki was 0.0126 µM.

**Q.** What about the pIC50 [3] of the same molecule?
**A.** Its pIC50 is 7.55.

From EP2729445B1, “CYCLIC AMINE DERIVATIVES AS EP4 RECEPTOR ANTAGONISTS” (Rottapharm Biotech S.r.l., priority 2011, dated 2013)
